We go through 5 molecules from US20170342503A1, “XRN2 AS A DETERMINANT OF SENSITIVITY TO DNA DAMAGE” (The Board of Regents of the University of Texas System, priority 2016, published 2017).

Assay [1] relates to cells with transient siRNA-mediated loss of XRN2. Briefly: Colony forming assay, PARP inhibition with transient siRNA-mediated loss of XRN2. Format: cell-based. The settings on record: FIG. 8C, p<0.05. As to the method:
FIGS. 8A-C. XRN2 depletion sensitizes cells to genetic knockdown and chemical inhibition of PARP1. […] (FIG. 8B) Loss of XRN2 and PARP1 by transient siRNA knockdown together inhibits cellular growth and survival; black column—shSCR; white column—shXRN2.
shScr and shXRN2 cells were plated onto 60 mm tissue culture plates and allowed to grow for two days. […] Colonies with >50 normal appearing cells were counted and percent survival calculated and graphed with dose.

In assay [2] the test system is advanced pancreatic cancer. The settings on record: people with advanced pancreatic cancer; cited from earlier work.
Assay [3] deals with XRN2 deficient cells, fibroblast or MDA-MB-231 cells. Put plainly: Colony forming ability assay in shScr versus shXRN2 cells after genomic insult. Format: cell-based, human. The settings on record: FIGS. 12E-F.
Text: (FIGS. 12A-D) shScr versus shXRN2 cells (as indicated in the graph) or cells exposed to si-control (siSCR) versus XRN2 specific siRNA (siXRN2) were either mock-treated or exposed to: (FIGS. 12A-B) ionizing radiation (IR); (FIGS. 12C-D) ultraviolet light (UV). (FIGS. 12E-F) shScr and shXRN2, were either mock-treated or exposed to: (FIG. 12E) H2O2 or (FIG. 12F) Aphidicolin (APH). Cells were then monitored for survival using colony forming ability assays. Colonies of >50 normal-appearing cells were quantified for mock-versus agent-exposed cells. (**p<0.01).
shScr and shXRN2 cells were plated onto 60 mm tissue culture plates and allowed to grow for two days. Cells were then exposed to IR and UV (at various doses as indicated), allowed to grow for 7 days, washed with PBS and stained with crystal violet solution. Colonies with >50 normal appearing cells were counted and percent survival calculated and graphed with dose.
Assay [4] deals with fibroblast cells. Put plainly: Immunofluorescence of XRN2 and R loop (S9.6) foci after UV treatment. The format is cell-based, human. The settings on record: UV (20 J/m^2) + a-amanitin; FIG. 17D. The source says:
FIGS. 10A-D. XRN2 is a DNA damage response (DDR) factor. (FIG. 10A) To interrogate potential in vivo XRN2-interacting partners, exponentially growing HeLa cells were collected and lysed for FPLC analyses. Individual fractions were separated by SDS-PAGE and western blot techniques used to probe for indicated proteins. (FIG. 10B) Interactions between XRN2 and the DNA damage regulators Ku80, 53BP1, and BRCA1 were interrogated by immunoprecipitation (IP). (FIG. 10C) Sub-cellular XRN2 localization was quantitated in shScr and […] cells in mock-, IR (1 Gy), and UV (20 J/m^2) fibroblast cells. (FIG. 10D) Sub-cellular XRN2 localization and S9.6 foci was visualized in mock-, UV (20 J/m^2)-, or UV (20 J/m^2)+a amanitin (a-aman)-treated shScr and shXRN2 fibroblast cells by IF. (*p<0.05).
FIGS. 17A-D. XRN2 undergoes transcription-dependent nuclear re-distribution in response to IR and UV. (FIGS. 17A-D) Sub-cellular localization of XRN2 was monitored in fibroblast cells either after (FIG. 17A) mock, (FIG. 17B) IR (1Gy), (FIG. 17C) UV (20 J/m^2), or (FIG. 17D) UV (20 J/m^2)+a-amanitin treated cells by IF.
To visualize 53BP1, XRN2, and γ-H2AX, cells were plated, grown to ˜70% confluency on glass coverslips and either mock- or IR-treated. […] Visualization was performed using a 100× oil objective lens with fluorescence on a Nikon microscope. For each experiment 100 cells were counted. […]

For assay [5], the system named is shXRN2 cells. Briefly: Regression of 53BP1 foci/nucleus after IR exposure (DNA repair kinetics). Format: cell-based. The following applies: IR (1 Gy); treatment prior to IR; FIGS. 15B-C. The source says: FIGS. 15A-C. R loop formation and transcription contribute to delayed DSB repair kinetics in XRN2-deficient cells. (FIG. 15A) Levels of R loops were monitored in mock- or IR (1 Gy)-exposed shXRN2 compared to shScr MDA-MB-231 breast cancer cells by IF. (FIGS. 15B-C) Regression of 53BP1 foci/nucleus was monitored in mock- or IR (1 Gy)-treated shXRN2 compared to shScr cells that were exposed to a-amanitin or GFP- or GFP-RNaseH transfection at the indicated times by IF. (*p<0.05).
To visualize 53BP1, XRN2, and γ-H2AX, cells were plated, grown to ˜70% confluency on glass coverslips and either mock- or IR-treated. […] Visualization was performed using a 100× oil objective lens with fluorescence on a Nikon microscope. For each experiment 100 cells were counted.
Since the loss of XRN2 sensitized cells to IR treatment (FIG. 12A), the inventors examined the effects of IR on R-loop formation in shXRN2 cells. Because R-loops can directly lead to DSBs, they examined whether active transcription or R-loop formation directly affected DNA repair (regression of 53BP1 foci) after IR treatment. shScr or shXRN2 cells were treated or not with a-amanitin or transfected with GFP- or GFP-RNaseH expression plasmids prior to IR exposure and 53BP1 foci/nuclei regression kinetics were assessed at various times after IR exposure.

In assay [6] the test system is shXRN2 human fibroblast cells. Put plainly: Immunofluorescence of basal 53BP1 foci and R loops in shXRN2 versus shScr cells. The format is cell-based. The method, then: FIGS. 24A-C. DSBs formed in XRN2 deficient cells are dependent on active transcription and R-loop formation. (FIGS. 24A-B) Levels of 53BP1 were monitored in shXRN2 and compared to shScr human fibroblast cells after exposure to mock-, a-amanitin-, or GFP- or RNaseH-transfection treatments by IF. (FIG. 24C) Levels of R loops or 53BP1 were monitored in mock- or a-amanitin-treated shXRN2 cells by IF.
To visualize 53BP1, XRN2, and γ-H2AX, cells were plated, grown to ˜70% confluency on glass coverslips and either mock- or IR-treated. Cells were then washed once with PBS, permeabilized and fixed in methanol/acetone (70/30, v/v). To visualize ATM pS 1981 and Mre11 cells were fixed in 3% paraformaldehyde/2% sucrose PBS solution for 10 min at room temperature (RT). Fixation was followed by permeabilization on ice with a 0.5% Triton X-100 buffer (0.5% Triton X-100, 20 mM HEPES, pH 7.4, 50 mM NaCl, 3 mM MgCl, and 300 mM sucrose). […] Visualization was performed using a 100× oil objective lens with fluorescence on a Nikon microscope. For each experiment 100 cells were counted.
To determine how transcription and R-loop formation contributed to the DNA damage observed in shXRN2 cells, the inventors treated shScr and shXRN2 cells with a-amanitin or transfected each cell line with GFP control or GFP-RNaseH expression plasmids to remove R-loops and measured the number of 53BP1 foci.

In the case of `O=C1NCCc2c(OCCCCN3CCCCC3)cccc21` [DPQ], in assay [1], the “effect of PARP activity inhibition on survival in colony forming assays with loss of XRN2” value was “synthetic lethal”.

As to `Nc1ccn([C@@H]2O[C@H](CO)[C@@H](O)C2(F)F)c(=O)n1` [Gemcitabine], the “improvement in median survival duration” value in assay [2] was 5 week.

For the molecule `C[C@@]1(CO)[C@H](O)CC[C@@]2(C)[C@H]1CC[C@H]1C[C@@H]3C[C@@]12CC[C@]3(O)CO` [aphidicolin], the “sensitivity of XRN2 deficient cells (colony forming ability after exposure)” value in assay [3] is “hypersensitive”.

`OO` [hydrogen peroxide]: in assay [3], the “sensitivity of XRN2 deficient cells (colony forming ability after exposure)” value was “hypersensitive”.

With a-amanitin, the “XRN2 and R loop foci formation after UV treatment” value in assay [4] was “failed to form”. For the same molecule, the “DNA repair kinetics (regression of 53BP1 foci) after IR exposure in shXRN2 cells” value in assay [5] was “completely restored DNA repair kinetics”. The “R-loop levels in shXRN2 cells” value in assay [6] (after a-amanitin treatment, FIG. 24C) was “decrease in R-loop levels”. Also, in assay [6] (inhibition of transcription, to levels comparable to shScr cells, FIGS. 24A-B), the “53BP1 foci in shXRN2 cells” value is listed as “decreased 53BP1 foci”.
